Laboratory results from US20260001928A1 (CORTERIA PHARMACEUTICALS, priority 2022, published 2026).
*1 amine or outer side, *2 acyl side, *3 side chain or, on linkers, in order; H or OH if unused. Where a SMILES comes first, the peptide text is derived from it. Side-chain parts run from the residue outwards. [ ]: non-standard residue; d: D form. The star is where a group is joined. C18 diacid = O=C(O)CCCCCCCCCCCCCCCCC(=O)*; C16 diacid = O=C(O)CCCCCCCCCCCCCCC(=O)*; γGlu = O=C(O)[C@H](CCC(=O)[*:2])N[*:1]; αMeL = CC(C)C[C@](C)(N)C(=O)O; AEEA = NCCOCCOCC(=O)O; Aib = CC(C)(N)C(=O)O

How the values were obtained:
[1] = Pharmacokinetics in male Sprague Dawley rats after subcutaneous administration; type: in vivo; settings: plasma, rat
human CRF2a receptor = target: T1, human CRF2a receptor (Homo sapiens, UniProt Q13324); assay: Activity at human CRF2a receptor, cAMP functional assay in TeloHEAC cells; type: cell-based; settings: TeloHEAC cells stably expressing human CRF2a receptor, relative to urocortin 2 (100 nM = 100%)
T1 construct: expressed in transfected cells; host or cells: TeloHEAC cells
T1 sequence (Q13324 1-411): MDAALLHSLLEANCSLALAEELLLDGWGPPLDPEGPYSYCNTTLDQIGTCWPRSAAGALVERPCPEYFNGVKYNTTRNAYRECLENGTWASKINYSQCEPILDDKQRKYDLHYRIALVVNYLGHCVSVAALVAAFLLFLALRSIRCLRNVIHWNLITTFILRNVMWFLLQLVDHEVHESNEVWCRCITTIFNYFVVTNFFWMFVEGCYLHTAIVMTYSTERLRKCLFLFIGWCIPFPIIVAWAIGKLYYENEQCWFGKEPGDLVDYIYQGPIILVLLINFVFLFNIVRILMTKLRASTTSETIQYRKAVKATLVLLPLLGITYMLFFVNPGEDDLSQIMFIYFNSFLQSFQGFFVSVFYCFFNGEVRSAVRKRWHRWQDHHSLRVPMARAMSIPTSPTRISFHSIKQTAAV
Outline: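 cAMP accumulation was measured by HTRF 665/620 nm ratio after 30 min at 37° C compound exposure (16 twofold dilutions) of CRF2a-expressing TeloHEAC cells, 10000/well, in HEPES-buffered HBSS plus IBMX. Activity was normalised to urocortin 2 at 100 nM (100%), and EC50 was the concentration giving half-maximal activation.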

[2] = Chemical stability in buffer (pH 7.4 / pH 4.5), % purity loss; type: physicochemical; settings: 40° C. vs 5° C., 14 or 28 days; for Buffer stability pH 4.5 % purity loss: 100 mM acetate buffer pH 4.5; for Buffer stability pH 7.4 % purity loss: 100 mM phosphate buffer pH 7.4
Outline: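 Compounds dissolved at 10 mg/mL target in 100 mM phosphate (pH 7.4) or 100 mM acetate (pH 4.5) buffer for 1 h at room temperature, then centrifuged. Diluted supernatant stored at 5 °C or 40 °C for 14 or 28 days; % purity loss by LC-UV.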

CFR1R receptor = target: T2, CFR1R receptor (Homo sapiens, UniProt P34998); assay: Activity at anti-target CFR1R receptor, cAMP assay in CRF1R-overexpression CHO-K1 cells; type: cell-based; settings: 100% = Sauvagine at 100 nM; for EC50: cAMP
T2 construct: host or cells: CHO-K1 (clone 2)
T2 sequence (P34998 24-415): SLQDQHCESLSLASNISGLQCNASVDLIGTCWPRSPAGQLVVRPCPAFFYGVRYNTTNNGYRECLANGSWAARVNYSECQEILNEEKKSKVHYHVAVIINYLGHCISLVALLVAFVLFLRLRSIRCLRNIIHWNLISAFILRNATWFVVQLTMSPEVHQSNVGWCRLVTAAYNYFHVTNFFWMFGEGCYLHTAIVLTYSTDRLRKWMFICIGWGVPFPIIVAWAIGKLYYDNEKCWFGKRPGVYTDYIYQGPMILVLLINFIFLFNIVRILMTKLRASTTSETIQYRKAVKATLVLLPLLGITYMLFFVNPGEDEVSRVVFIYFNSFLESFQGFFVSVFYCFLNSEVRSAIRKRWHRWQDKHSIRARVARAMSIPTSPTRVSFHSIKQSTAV
Outline: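 cAMP readout in CRF1R-overexpressing CHO-K1 cells (clone 2), run as for the TeloHAEC assay at 4000 cells/well final. Cells came from cryopreserved banks. Sauvagine at 100 nM defined 100% activation.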

Sprague Dawley rats = assay: Effect on systolic blood pressure, telemetry in Sprague Dawley rats; type: in vivo, rat; settings: 0.1 mg/kg SC; for Systolic blood pressure (Mean) % change from baseline, 8 h / Systolic blood pressure (Mean) % change from baseline, 12 h / Systolic blood pressure (Mean) % change from baseline, 24 h: n=2; for Duration of action: last time point with an effect on BP still observed
Outline: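 Sprague Dawley rats with abdominal-aorta telemetry catheters, recovered ≥10 days, received 0.1 mg/kg SC of compound or vehicle. Systolic pressure recorded 1 h pre-dose as baseline, then continuously up to 48 hours, expressed as % change from baseline; duration of action is last time point with a BP effect (n=2).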

Compound	AUC(0-t) ([1]; IV, 0.1 mg/kg) [ng·h/mL]	half-life ([1]; IV, 0.1 mg/kg) [h]	AUC(0-t) ([1]; SC, 1.0 mg/kg) [ng·h/mL]	Cmax ([1]; SC, 1.0 mg/kg) [ng/mL]	Tmax ([1]; SC, 1.0 mg/kg) [h]	half-life ([1]; SC, 1.0 mg/kg) [h]	EC50 (human CRF2a receptor) [pM]	Buffer stability pH 4.5 % purity loss [2]	Buffer stability pH 7.4 % purity loss [2]	Emax (% I) (CFR1R receptor)	EC50 (CFR1R receptor) [pM]	Systolic blood pressure (Mean) % change from baseline, 8 h (Sprague Dawley rats) [%]	Systolic blood pressure (Mean) % change from baseline, 12 h (Sprague Dawley rats) [%]	Systolic blood pressure (Mean) % change from baseline, 24 h (Sprague Dawley rats) [%]	Duration of action (Sprague Dawley rats) [h]
CC[C@H](C)[C@H](N)C(=O)N[C@H](C(=O)N[C@@H](CC(C)C)C(=O)N[C@@H](CO)C(=O)N[C@@H](CC(C)C)C(=O)N[C@@H](CC(=O)O)C(=O)N[C@H](C(=O)N1CCC[C@H]1C(=O)N[C@H](C(=O)N[C@@H](CCCCN)C(=O)N[C@@H](CC(C)C)C(=O)N[C@@H](CCCCNC(=O)COCCOCCNC(=O)COCCOCCNC(=O)CC[C@H](NC(=O)CCCCCCCCCCCCCCCCC(=O)O)C(=O)O)C(=O)N[C@@H](CCCCN)C(=O)N[C@H](C(=O)N[C@@H](CC(C)C)C(=O)N[C@@H](CC(C)C)C(=O)N[C@@H](CCC(=O)O)C(=O)N[C@@H](CCC(N)=O)C(=O)N[C@@H](CCC(=O)O)C(=O)N[C@@H](CCCCN)C(=O)N[C@@H](CCC(N)=O)C(=O)N[C@@H](CCCCN)C(=O)N[C@@H](CCCCN)C(=O)N[C@@H](CCC(N)=O)C(=O)N[C@@H](CCCNC(=N)N)C(=O)N[C@@H](CCC(=O)O)C(=O)N[C@@H](CCC(N)=O)C(=O)N[C@@H](C)C(=O)N[C@@H](CCC(=O)O)C(=O)N[C@H](C(=O)N[C@@H](CC(N)=O)C(=O)N[C@@H](CCCCN)C(=O)N[C@@H](CCC(N)=O)C(=O)N[C@H](C(=O)N[C@@H](CC(C)C)C(=O)N[C@@H](C)C(=O)N[C@@H](CCC(N)=O)C(=O)N[C@H](C(N)=O)C(C)C)[C@@H](C)CC)[C@@H](C)O)[C@@H](C)CC)[C@@H](C)CC)C(C)C)C(C)C [149 (Comp Y)] (H-IVLSLDVPIKLK([AEEA-AEEA-γGlu-C18 diacid])KILLEQEKQKKQREQAETNKQILAQV-NH2)	2760	4.3	14500	1040	2	4									
CC[C@H](C)[C@H](NC(C)=O)C(=O)N[C@H](C(=O)N[C@@H](CC(C)C)C(=O)N[C@@H](CO)C(=O)N[C@@H](CC(C)C)C(=O)N[C@@H](CC(=O)O)C(=O)N[C@@H](C(=O)N1CCC[C@H]1C(=O)N[C@H](C(=O)N[C@@H](CCCCN)C(=O)N[C@@H](CC(C)C)C(=O)N[C@@H](CCCCNC(=O)COCCOCCNC(=O)COCCOCCNC(=O)CC[C@H](NC(=O)CCCCCCCCCCCCCCCCC(=O)O)C(=O)O)C(=O)N[C@@H](CCCCN)C(=O)N[C@H](C(=O)N[C@@H](CC(C)C)C(=O)N[C@@H](CC(C)C)C(=O)N[C@@H](CCC(=O)O)C(=O)N[C@@H](CCC(N)=O)C(=O)N[C@@H](CCC(=O)O)C(=O)N[C@@H](CCCCN)C(=O)N[C@@H](CCC(N)=O)C(=O)N[C@@H](CCCCN)C(=O)N[C@@H](CCCCN)C(=O)N[C@@H](CCC(N)=O)C(=O)N[C@@H](CCCNC(=N)N)C(=O)N[C@@H](CCC(=O)O)C(=O)N[C@@H](CCC(N)=O)C(=O)N[C@@H](C)C(=O)N[C@@H](CCC(=O)O)C(=O)N[C@H](C(=O)N[C@@H](CC(N)=O)C(=O)N[C@@H](C)C(=O)N[C@@H](CCC(N)=O)C(=O)N[C@H](C(=O)N[C@@H](CC(C)C)C(=O)N[C@@H](C)C(=O)N[C@@H](CCC(N)=O)C(=O)N[C@H](C(N)=O)C(C)C)[C@@H](C)CC)[C@@H](C)O)[C@@H](C)CC)[C@@H](C)CC)C(C)C)C(C)C [compound 100] (Ac-IVLSLD[dV]PIKLK([AEEA-AEEA-γGlu-C18 diacid])KILLEQEKQKKQREQAETNAQILAQV-NH2)							410	0%	13.2%	8	> 250000	−22	−12	−9	>24
CC[C@H](C)[C@H](NC(=O)[C@H](CCC(N)=O)NC(=O)[C@H](CCCCN)NC(=O)[C@H](CC(N)=O)NC(=O)[C@@H](NC(=O)[C@H](CCC(=O)O)NC(=O)[C@H](C)NC(=O)[C@H](CCC(N)=O)NC(=O)[C@H](CCC(=O)O)NC(=O)[C@H](CCCNC(=N)N)NC(=O)[C@H](CCC(N)=O)NC(=O)[C@H](CCCCN)NC(=O)[C@H](CCCCN)NC(=O)[C@H](CCC(N)=O)NC(=O)[C@H](CCCCN)NC(=O)[C@H](CCC(=O)O)NC(=O)[C@H](CCC(N)=O)NC(=O)[C@H](CCC(=O)O)NC(=O)[C@H](CC(C)C)NC(=O)[C@H](CC(C)C)NC(=O)[C@@H](NC(=O)[C@H](CCCCN)NC(=O)[C@H](CCCCNC(=O)CC[C@H](NC(=O)CCCCCCCCCCCCCCC(=O)O)C(=O)O)NC(=O)[C@H](CC(C)C)NC(=O)[C@H](CCCCN)NC(=O)[C@@H](NC(=O)[C@@H]1CCCN1C(=O)[C@H](NC(=O)[C@H](CC(=O)O)NC(=O)[C@H](CC(C)C)NC(=O)[C@H](CO)NC(=O)[C@H](CC(C)C)NC(=O)[C@@H](NC(C)=O)C(C)C)C(C)C)[C@@H](C)CC)[C@@H](C)CC)[C@@H](C)O)C(=O)N[C@@H](CC(C)C)C(=O)N[C@@H](C)C(=O)N[C@@H](CCC(N)=O)C(=O)N[C@H](C(N)=O)C(C)C [compound 33] (Ac-VLSLD[dV]PIKLK([γGlu-C16 diacid])KILLEQEKQKKQREQAETNKQILAQV-NH2)							470	0%	18.8%	13	> 250000	−22	−11	16	17
CC[C@H](C)[C@H](NC(C)=O)C(=O)N[C@H](C(=O)N[C@@H](CC(C)C)C(=O)N[C@@H](CO)C(=O)N[C@@H](CC(C)C)C(=O)N[C@@H](CC(=O)O)C(=O)N[C@H](C(=O)N1CCC[C@H]1C(=O)N[C@H](C(=O)N[C@@H](CCCCN)C(=O)N[C@@](C)(CC(C)C)C(=O)N[C@@H](CCCCNC(=O)CC[C@H](NC(=O)CCCCCCCCCCCCCCC(=O)O)C(=O)O)C(=O)N[C@@H](CCC(N)=O)C(=O)N[C@H](C(=O)N[C@@H](CC(C)C)C(=O)N[C@@H](CC(C)C)C(=O)N[C@@H](CCCCN)C(=O)N[C@@H](CCC(N)=O)C(=O)N[C@@H](CCC(=O)O)C(=O)N[C@@H](CCCNC(=N)N)C(=O)N[C@@H](CCC(N)=O)C(=O)N[C@@H](CCCCN)C(=O)N[C@@H](CCCCN)C(=O)N[C@@H](CCC(N)=O)C(=O)N[C@@H](CCCNC(=N)N)C(=O)N[C@@H](CCC(=O)O)C(=O)N[C@@H](CCC(N)=O)C(=O)N[C@@H](C)C(=O)N[C@@H](CCC(=O)O)C(=O)N[C@@H](CCCCN)C(=O)N[C@@H](CC(N)=O)C(=O)NC(C)(C)C(=O)N[C@@H](CCC(N)=O)C(=O)N[C@H](C(=O)N[C@@H](CC(C)C)C(=O)N[C@@H](CCC(=O)O)C(=O)N[C@@H](CCC(N)=O)C(=O)N[C@H](C(N)=O)C(C)C)[C@@H](C)CC)[C@@H](C)CC)[C@@H](C)CC)C(C)C)C(C)C [compound 19] (Ac-IVLSLDVPIK[αMeL]K([γGlu-C16 diacid])QILLKQERQKKQREQAEKN[Aib]QILEQV-NH2)							280	0/0 ^ %	0/0 ^ %	6	> 250000	−21	0	10	11
